Experimental data from paper PMC12028158, “Synthesis and In Vitro Evaluation of the Anticancer Effect of Novel Phosphonium Vindoline Derivatives” (International Journal of Molecular Sciences, 2025).
Like-named read-outs stand apart in the source and are kept apart here.

Assays:
Assay type in all cases: cell-based
MOLT-4 = test: NCI60 five-dose screen; conditions: Homo sapiens
EKVX = test: NCI60 five-dose screen; conditions: Homo sapiens
SK-MEL-5 = test: NCI60 one-dose screen; conditions: Homo sapiens
SNB-19 = test: NCI60 five-dose screen; conditions: Homo sapiens
IGROV1 [1] = test: NCI60 one-dose screen; conditions: Homo sapiens
Prostate Cancer panel = test: NCI60 five-dose screen, panel mean; conditions: Homo sapiens, read-out: Mean GI50
SF-295 [2] = test: NCI60 five-dose screen; conditions: Homo sapiens
Colon Cancer panel = test: NCI60 five-dose screen, panel mean; conditions: Homo sapiens, read-out: Mean GI50
786-0 = test: NCI60 one-dose screen; conditions: Homo sapiens
A498 [3] = test: NCI60 one-dose screen; conditions: Homo sapiens
NCI-H522 [4] = test: NCI60 five-dose screen; conditions: Homo sapiens
ACHN [5] = test: NCI60 five-dose screen; conditions: Homo sapiens
M14 [6] = test: NCI60 one-dose screen; conditions: Homo sapiens
HCC-2998 = test: NCI60 one-dose screen; conditions: Homo sapiens
MDA-MB-435 = test: NCI60 one-dose screen; conditions: Homo sapiens
MDA-MB-468 [7] = test: NCI60 five-dose screen; conditions: Homo sapiens
NCI/ADR-RES = test: NCI60 one-dose screen; conditions: Homo sapiens, read-out: Growth percent
SR = test: NCI60 one-dose screen; conditions: Homo sapiens, read-out: Growth percent
HS 578T = test: NCI60 one-dose screen; conditions: Homo sapiens, read-out: Growth percent
HOP-92 = test: NCI60 five-dose screen; conditions: Homo sapiens
MDA-MB-231/ATCC = test: NCI60 one-dose screen; conditions: Homo sapiens
SK-OV-3 = test: NCI60 one-dose screen; conditions: Homo sapiens
HT29 = test: NCI60 five-dose screen; conditions: Homo sapiens, HT-29
UACC-62 = test: NCI60 five-dose screen; conditions: Homo sapiens
M14 [8] = test: NCI60 five-dose screen; conditions: Homo sapiens
OVCAR-8 = test: NCI60 five-dose screen; conditions: Homo sapiens
MDA-MB-468 [9] = test: NCI60 one-dose screen; conditions: Homo sapiens
SF-268 = test: NCI60 one-dose screen; conditions: Homo sapiens
A549/ATCC = test: NCI60 five-dose screen; conditions: Homo sapiens
U251 [10] = test: NCI60 five-dose screen; conditions: Homo sapiens
HCT-116 = test: NCI60 five-dose screen; conditions: Homo sapiens
SN12C = test: NCI60 one-dose screen; conditions: Homo sapiens, read-out: Growth percent
ACHN [11] = test: NCI60 one-dose screen; conditions: Homo sapiens, read-out: Growth percent
CCRF-CEM = test: NCI60 five-dose screen; conditions: Homo sapiens
TK-10 [12] = test: NCI60 five-dose screen; conditions: Homo sapiens
NCI-H226 = test: NCI60 five-dose screen; conditions: Homo sapiens
T-47D = test: NCI60 five-dose screen; conditions: Homo sapiens, T47D
TK-10 [13] = test: NCI60 one-dose screen; conditions: Homo sapiens
SF-295 [14] = test: NCI60 one-dose screen; conditions: Homo sapiens
NCI-H522 [15] = test: NCI60 one-dose screen; conditions: Homo sapiens
IGROV1 [16] = test: NCI60 five-dose screen; conditions: Homo sapiens, IGROV-1
A498 [17] = test: NCI60 five-dose screen; conditions: Homo sapiens
U251 [18] = test: NCI60 one-dose screen; conditions: Homo sapiens
OVCAR-5 = test: NCI60 five-dose screen; conditions: Homo sapiens
NCI-H460 = test: NCI60 one-dose screen; conditions: Homo sapiens
DU-145 = test: NCI60 one-dose screen; conditions: Homo sapiens
MCF7 = test: NCI60 one-dose screen; conditions: Homo sapiens

`CCC12C=CCN3CCC4(c5ccc(OC)cc5N(C)C4C(O)(C(=O)OC)C1OC(=O)CCC[P+](c1ccc(C)cc1)(c1ccc(C)cc1)c1ccc(C)cc1)C32` (stereo not shown) [9a] showed a GI50 (MOLT-4; MOLT-4) of 294 nM, a GI50 (EKVX) of 534 nM and an activity at 10 µM (SK-MEL-5; SK-MEL-5, read-out: Growth percent) of -99.4%. The GI50 (SNB-19; SNB-19) was 306 nM, the activity at 10 µM (IGROV1 [1]; IGROV-1, read-out: Growth percent) was -89.5% and the GI50 (Prostate Cancer panel) was 380 nM. It also gave a GI50 (SF-295 [2]; SF-295) of 521 nM, a GI50 (Colon Cancer panel) of 510 nM and an activity at 10 µM (786-0; 786-0, read-out: Growth percent) of -88%. For the same molecule, the activity at 10 µM (A498 [3]; A498, read-out: Growth percent) was -88.6%, the GI50 (NCI-H522 [4]; NCI-H522) was 258 nM and the GI50 (ACHN [5]) was 1610 nM. The activity at 10 µM (M14 [6]; M14, read-out: Growth percent) was -85.3%, the activity at 10 µM (HCC-2998; HCC 2998, read-out: Growth percent) was -91.4% and the activity at 10 µM (MDA-MB-435; MDA-MB-435, read-out: Growth percent) was -57.5%. The GI50 (MDA-MB-468 [7]; MDA-MB-468) was 165 nM, the activity at 10 µM (NCI/ADR-RES) was 18.1% and the activity at 10 µM (SR) was 5.74%. For the same molecule, the activity at 10 µM (HS 578T; Hs-578T) was -60.3%, the GI50 (HOP-92; HOP-92) was 187 nM and the activity at 10 µM (MDA-MB-231/ATCC; MDA-MB-231, read-out: Growth percent) was -94.8%. The activity at 10 µM (SK-OV-3; SK-OV-3, read-out: Growth percent) was -81%, the GI50 (HT29) was 219 nM and the GI50 (UACC-62; UACC-62) was 275 nM. The GI50 (M14 [8]; M14) was 456 nM, the GI50 (OVCAR-8; OVCAR-8) was 372 nM and the activity at 10 µM (MDA-MB-468 [9]; MDA-MB-468, read-out: Growth percent) was -92.1%. It also gave an activity at 10 µM (SF-268; SF-268, read-out: Growth percent) of -46.3%, a GI50 (A549/ATCC; A549) of 334 nM and a GI50 (U251 [10]; U-251) of 291 nM. For the same molecule, the GI50 (HCT-116; HCT-116) was 307 nM, the activity at 10 µM (SN12C) was -88.1% and the activity at 10 µM (ACHN [11]) was -97.8%. The GI50 (CCRF-CEM) was 359 nM, the GI50 (TK-10 [12]; TK-10) was 600 nM and the GI50 (NCI-H226; NCI-H226) was 521 nM. For the same molecule, the GI50 (T-47D) was 314 nM, the activity at 10 µM (TK-10 [13]; TK-10, read-out: Growth percent) was -88.5% and the activity at 10 µM (SF-295 [14]; SF-295, read-out: Growth percent) was -89.1%. The activity at 10 µM (NCI-H522 [15]; NCI-H522, read-out: Growth percent) was -86.3%, the GI50 (IGROV1 [16]) was 383 nM and the GI50 (A498 [17]; A498) was 1630 nM. It also gave an activity at 10 µM (U251 [18]; U-251, read-out: Growth percent) of -91.2%, a GI50 (OVCAR-5; OVCAR-5) of 331 nM and an activity at 10 µM (NCI-H460; NCI-H460, read-out: Growth percent) of -85.2%. The activity at 10 µM (DU-145; DU-145, read-out: Growth percent) was -78.5% and the activity at 10 µM (MCF7; MCF7, read-out: Growth percent) was -76.3%.
Molecule `CC[C@]12C=CCN3CC[C@@]4(c5ccc(OC)cc5N(C)[C@H]4[C@@](O)(C(=O)OC)[C@@H]1OC(=O)CCC[P+](c1ccc(OC)cc1)(c1ccc(OC)cc1)c1ccc(OC)cc1)[C@@H]32` [9b] has a GI50 (MOLT-4; MOLT-4, Leukemia, five-dose, read-out: GI50) of 933 nM, a GI50 (EKVX; Non-small Cell Lung Cancer, five-dose, read-out: GI50) of 1060 nM and an activity at 10 µM (SK-MEL-5; SK-MEL-5, 10 μM, one-dose, read-out: Growth percent) of -99.6%. It also gave a GI50 (SNB-19; SNB-19, SNB-19, CNS Cancer, five-dose, read-out: GI50) of 391 nM, an activity at 10 µM (IGROV1 [1]; IGROV-1, IGROV1, 10 μM, one-dose, read-out: Growth percent) of -92.1% and a GI50 (Prostate Cancer panel; mean over Prostate Cancer panel) of 710 nM. The GI50 (SF-295 [2]; SF-295, CNS Cancer, five-dose, read-out: GI50) was 1920 nM, the GI50 (Colon Cancer panel; mean over Colon Cancer panel) was 980 nM and the activity at 10 µM (786-0; 786-0, 10 μM, one-dose, read-out: Growth percent) was -89.5%. It also gave an activity at 10 µM (A498 [3]; A498, 10 μM, one-dose, read-out: Growth percent) of -83.2%, a GI50 (NCI-H522 [4]; NCI-H522, Non-small Cell Lung Cancer, five-dose, read-out: GI50) of 391 nM and a GI50 (ACHN [5]; Renal Cancer, five-dose, read-out: GI50) of 458 nM. It also gave an activity at 10 µM (M14 [6]; M14, 10 μM, one-dose, read-out: Growth percent) of -88.4%, an activity at 10 µM (HCC-2998; HCC-2998, 10 μM, one-dose, read-out: Growth percent) of -89.7% and an activity at 10 µM (MDA-MB-435; MDA-MB-435, 10 μM, one-dose, read-out: Growth percent) of -76.9%. The GI50 (MDA-MB-468 [7]; MDA-MB-468, MDA-MB-468, Breast Cancer, five-dose, read-out: GI50) was 241 nM, the activity at 10 µM (NCI/ADR-RES; 10 μM, one-dose) was 79.9% and the activity at 10 µM (SR; 10 μM, one-dose) was 15%. It also gave an activity at 10 µM (HS 578T; HS 578T, 10 μM, one-dose) of -65.4%, a GI50 (HOP-92; HOP-92, Non-small Cell Lung Cancer, five-dose, read-out: GI50) of 344 nM and an activity at 10 µM (MDA-MB-231/ATCC; MDA-MB-231/ATCC, 10 μM, one-dose, read-out: Growth percent) of -97%. The activity at 10 µM (SK-OV-3; SK-OV-3, 10 μM, one-dose, read-out: Growth percent) was -85.1%, the GI50 (HT29; HT29, Colon Cancer, five-dose, read-out: GI50) was 371 nM and the GI50 (UACC-62; UACC-62, Melanoma, five-dose, read-out: GI50) was 603 nM. The GI50 (M14 [8]; M14, Melanoma, five-dose, read-out: GI50) was 1120 nM, the GI50 (OVCAR-8; OVCAR-8, Ovarian Cancer, five-dose, read-out: GI50) was 1410 nM and the activity at 10 µM (MDA-MB-468 [9]; MDA-MB-468, 10 μM, one-dose, read-out: Growth percent) was -92.1%. For the same molecule, the activity at 10 µM (SF-268; SF-268, 10 μM, one-dose, read-out: Growth percent) was -34.3%, the GI50 (A549/ATCC; A549/ATCC, Non-small Cell Lung Cancer, five-dose, read-out: GI50) was 731 nM and the GI50 (U251 [10]; U-251, U251, CNS Cancer, five-dose, read-out: GI50) was 360 nM. It also gave a GI50 (HCT-116; HCT-116, Colon Cancer, five-dose, read-out: GI50) of 712 nM, an activity at 10 µM (SN12C; 10 μM, one-dose) of -93.4% and an activity at 10 µM (ACHN [11]; 10 μM, one-dose) of -95.8%. For the same molecule, the GI50 (CCRF-CEM; Leukemia, five-dose, read-out: GI50) was 887 nM, the GI50 (TK-10 [12]; TK-10, Renal Cancer, five-dose, read-out: GI50) was 1510 nM and the GI50 (NCI-H226; NCI-H226, Non-small Cell Lung Cancer, five-dose, read-out: GI50) was 1430 nM. It also gave a GI50 (T-47D; T-47D, Breast Cancer, five-dose, read-out: GI50) of 353 nM, an activity at 10 µM (TK-10 [13]; TK-10, 10 μM, one-dose, read-out: Growth percent) of -90.7% and an activity at 10 µM (SF-295 [14]; SF-295, 10 μM, one-dose, read-out: Growth percent) of -93.7%. It also gave an activity at 10 µM (NCI-H522 [15]; NCI-H522, 10 μM, one-dose, read-out: Growth percent) of -89.4%, a GI50 (IGROV1 [16]; IGROV1, Ovarian Cancer, five-dose, read-out: GI50) of 533 nM and a GI50 (A498 [17]; A498, Renal Cancer, five-dose, read-out: GI50) of 2340 nM. The activity at 10 µM (U251 [18]; U-251, U251, 10 μM, one-dose, read-out: Growth percent) was -93.7%, the GI50 (OVCAR-5; OVCAR-5, Ovarian Cancer, five-dose, read-out: GI50) was 1770 nM and the activity at 10 µM (NCI-H460; NCI-H460, 10 μM, one-dose, read-out: Growth percent) was -85.2%. The activity at 10 µM (DU-145; DU-145, 10 μM, one-dose, read-out: Growth percent) was -75.4% and the activity at 10 µM (MCF7; MCF7, 10 μM, one-dose, read-out: Growth percent) was -83%.
